Measurements: patent publication US20230286973A1, “PROTEIN SECRETION INHIBITORS” (KEZAR LIFE SCIENCES, priority 2020, published 2023)

Key:
[1] = test system: multiple myeloma cell line U266B1; assay: U266 Cell Viability Assay; type: cell-based, human; conditions: Homo sapiens, U-266, 48 h, U266B1 cells, Celltiter-Glo
Summary of the method: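 Luminescent ATP read-out (CellTiter-Glo) after 48 h compound exposure at 37° C., 5% CO2; cells maintained in RPMI 1640/10% FBS/2 mM glutamine/pen-strep, compounds diluted in DMSO/media.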

[2] = Liver Microsome Stability Assay (rat); conditions: rat liver microsomes, with NADPH, 1.0 uM compound
Description: (§1) Stability of a compound was assessed in the presence of liver microsomes from various sources—mouse, rat, monkey and human liver microsomes. 1.0 uM compound, 0.4% DMSO in 0.1 M Potassium Phosphate with 1.0 mg/mL liver microsomes, were incubated at 37° C. with or without 1 mM NADPH. The samples were quenched at 0, and 30 minutes.

[3] = test system: multiple myeloma cell line NCI-H929; assay: H929 Cell Viability Assay; type: cell-based, human; conditions: Homo sapiens, NCI-H929, 48 h, NCI-H929 cells, Celltiter-Glo
Summary of the method: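 Cells in RPMI 1640/10% FBS; compound dilutions in DMSO/media; 48 h, 37° C, 5% CO2; CellTiter-Glo luciferase readout for viability.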

[4] = Liver Microsome Stability Assay (monkey); conditions: monkey liver microsomes, with NADPH, 1.0 uM compound
Description: as §1

[5] = Liver Microsome Stability Assay (mouse); conditions: mouse liver microsomes, with NADPH, 1.0 uM compound
Description: as §1

[6] = Liver Microsome Stability Assay (human); conditions: human liver microsomes, with NADPH, 1.0 uM compound
Description: as §1

[7] = test system: TNFα-FL/Gaussia Luciferase; assay: Dox Induced TNFα-FL-Gluc Assay; type: cell-based; conditions: for IC50: 24 hr Dox induction, 293FRT/TO cells, read-out: 24 hr Dox Inducible TNFaFLGluc 293FRT/TO: Mean IC50; for 24 hr Dox Inducible TNFaFLGluc 293FRT/TO: TNF/PD1: ratio of TNFaFLGluc IC50 to PD1ssGluc IC50
Summary of the method: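 Cell line: stable Flp-In 293 T-REx, TNFα-FL(1-233)-Gaussia luciferase fusion, T-REx-inducible. Plated day -1; compounds in DMSO/media + doxycycline, 37 °C, 5% CO2. Undefined stereocentres = mixture tested.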

[8] = test system: IL-2-FL/Gaussia Luciferase; assay: Dox Induced IL2-FL-Gluc Assay; type: cell-based; conditions: for IC50: 24 hr Dox induction, 293FRT/TO cells, read-out: 24 hr Dox Inducible IL2FLGluc 293FRT/TO: Mean IC50; for 24 hr Dox Inducible IL2FLGluc 293FRT/TO: IL2/PD1: ratio of IL2FLGluc IC50 to PD1ssGluc IC50
Summary of the method: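 Stable Flp-In 293 T-REx line, Tet-regulated IL-2 (aa 1-153)–Gaussia luciferase fusion; hygromycin/blasticidin selected. Plated day -1; compound + doxycycline added next day; 37° C, 5% CO2.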

[9] = test system: HER3-ss+4aa/Gaussia Luciferase; assay: Dox-Induced Her3-ss-Gluc Assay; type: cell-based; conditions: 24 hr Dox induction; 293FRT/TO cells; read-out: 24 hr Dox Inducible Her3(ss + 4)Gluc 293FRT/TO: Mean IC50
Summary of the method: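 Flp-In 293 T-REx cells, stable HER3-ss+4aa/Gaussia luciferase insert, hygromycin/blasticidin selected; plated day before; compound in DMSO/media + doxycycline; 37° C., 5% CO2.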

[10] = test system: PD1-ss+10aa/Gaussia Luciferase; assay: Dox-Induced PD1-ss-Gluc Assay; type: cell-based; conditions: 24 hr Dox induction; 293FRT/TO cells; read-out: 24 hr Dox Inducible PD1ssGluc 293FRT/TO: Mean IC50
Summary of the method: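 Flp-In 293 T-REx cells stably carrying a doxycycline-inducible Gaussia luciferase fused to the PD1 signal sequence plus 10 aa were plated the day before. Compound dilutions in DMSO/media containing doxycycline were then added and incubated at 37 °C, 5% CO2. Data for undefined stereochemistry refer to stereoisomer mixtures.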

| SMILES | EC50 [1] | Liver Microsome Stability (Multiple Species): Rat - % Remaining after 30 min w/NADPH [2] | EC50 [3] | Liver Microsome Stability (Multiple Species): Monkey - % Remaining after 30 min w/NADPH [4] | Liver Microsome Stability (Multiple Species): Mouse - % Remaining after 30 min w/NADPH [5] | Liver Microsome Stability (Multiple Species): Human - % Remaining after 30 min w/NADPH [6] | IC50 [7] | IC50 [8] | IC50 [9] | IC50 [10] | 24 hr Dox Inducible TNFaFLGluc 293FRT/TO: TNF/PD1 [7] | 24 hr Dox Inducible IL2FLGluc 293FRT/TO: IL2/PD1 [8] |
| --- | --- | --- | --- | --- | --- | --- | --- | --- | --- | --- | --- | --- |
| O=C(Nc1nc(/C=C/c2c[nH]cn2)cs1)c1cccn1Cc1ccncc1 [Compound B42, (E)-N-(4-(2-(1H-imidazol-4-yl)vinyl)thiazol-2-yl)-1-(pyridin-4-ylmethyl)-1H-pyrrole-2-carboxamide] | > 25 µM | 8.69% | > 25 µM | 11.3% | 26.5% | 6.13% | > 25 µM | > 25 µM | > 25 µM | 6.68 µM | >3.74 | >3.7 |
| O=C(Nc1nc(/C=C/c2cnccn2)cs1)c1cccn1Cc1ccncc1 [Compound B43, (E)-N-(4-(2-(pyrazin-2-yl)vinyl)thiazol-2-yl)-1-(pyridin-4-ylmethyl)-1H-pyrrole-2-carboxamide] | > 25 µM | 1.88% | > 25 µM | 0.92% | 1.19% | 1.83% | > 25 µM | > 25 µM | > 25 µM | 0.264 µM | >94.5 | >95 |
| O=C(Nc1nc(/C=C/c2ccncn2)cs1)c1cccn1Cc1ccncc1 [Compound B44, (E)-1-(pyridin-4-ylmethyl)-N-(4-(2-(pyrimidin-4-yl)vinyl)thiazol-2-yl)-1H-pyrrole-2-carboxamide] | > 25 µM | 1.3% | > 25 µM | 0.36% | 4.87% | 0.24% | > 25 µM | > 25 µM | > 25 µM | 3.36 µM | >7.44 | >7.4 |
| Cc1ocnc1/C=C/c1csc(NC(=O)c2cccn2Cc2ccnc(F)c2)n1 [Compound B47, (E)-1-((2-fluoropyridin-4-yl)methyl)-N-(4-(2-(5-methyloxazol-4-yl)vinyl)thiazol-2-yl)-1H-pyrrole-2-carboxamide] | > 25 µM | 0.41% | > 25 µM | 1.45% | 30.8% | 2.81% | 18.8 µM | 14.5 µM | 5.75 µM | 0.0415 µM | 454 | 350 |

Further lines, with some results ahead:

| EC50 [1] | Liver Microsome Stability (Multiple Species): Rat - % Remaining after 30 min w/NADPH [2] | EC50 [3] | Liver Microsome Stability (Multiple Species): Monkey - % Remaining after 30 min w/NADPH [4] | Liver Microsome Stability (Multiple Species): Mouse - % Remaining after 30 min w/NADPH [5] | Liver Microsome Stability (Multiple Species): Human - % Remaining after 30 min w/NADPH [6] | IC50 [7] | IC50 [8] | IC50 [9] | IC50 [10] | SMILES | 24 hr Dox Inducible TNFaFLGluc 293FRT/TO: TNF/PD1 [7] | 24 hr Dox Inducible IL2FLGluc 293FRT/TO: IL2/PD1 [8] |
| --- | --- | --- | --- | --- | --- | --- | --- | --- | --- | --- | --- | --- |
| > 25 µM | 6.38% | > 25 µM | 0.13% | 2.42% | 0.13% | > 25 µM | > 25 µM | > 25 µM | 0.0683 µM | CC(C)n1cnc(/C=C/c2csc(NC(=O)c3cccn3Cc3ccncc3)n2)c1 [Compound B37, (E)-N-(4-(2-(1-isopropyl-1H-imidazol-4-yl)vinyl)thiazol-2-yl)-1-(pyridin-4-ylmethyl)-1H-pyrrole-2-carboxamide] | >366 | >370 |
| 8.93 µM | 1.03% | 7.56 µM | 0.69% | 6.78% | 0.54% | 7.05 µM | 5.59 µM | 1.38 µM | 0.192 µM | CC(C)c1nc(/C=C/c2csc(NC(=O)c3cccn3Cc3ccncc3)n2)co1 [Compound B38, (E)-N-(4-(2-(2-isopropyloxazol-4-yl)vinyl)thiazol-2-yl)-1-(pyridin-4-ylmethyl)-1H-pyrrole-2-carboxamide] | 36.6 | 29 |
| 13.1 µM | 5.38% | 10.2 µM | 0.47% | 16.5% | 0.27% | 6.46 µM | 1.96 µM | 0.945 µM | 0.268 µM | O=C(Nc1nc(/C=C/c2coc(C3CCCCC3)n2)cs1)c1cccn1Cc1ccncc1 [Compound B39, (E)-N-(4-(2-(2-cyclohexyloxazol-4-yl)vinyl)thiazol-2-yl)-1-(pyridin-4-ylmethyl)-1H-pyrrole-2-carboxamide] | 24.1 | 7.3 |
| > 25 µM | 0.73% | > 25 µM | 2.25% | 5.73% | 0.48% | > 25 µM | 4.57 µM | 1.68 µM | 0.221 µM | O=C(Nc1nc(/C=C/c2coc(C3CC3)n2)cs1)c1cccn1Cc1ccncc1 [Compound B40, (E)-N-(4-(2-(2-cyclopropyloxazol-4-yl)vinyl)thiazol-2-yl)-1-(pyridin-4-ylmethyl)-1H-pyrrole-2-carboxamide] | >113 | 21 |
| > 25 µM | 0.15% | > 25 µM | 0.44% | 0.36% | 0.18% | > 25 µM | > 16.6 µM | 3.63 µM | 0.398 µM | Cc1coc(/C=C/c2csc(NC(=O)c3cccn3Cc3ccncc3)n2)n1 [Compound B41, (E)-N-(4-(2-(4-methyloxazol-2-yl)vinyl)thiazol-2-yl)-1-(pyridin-4-ylmethyl)-1H-pyrrole-2-carboxamide] | >62.8 | >42 |
| > 24.2 µM | 16.3% | 19.9 µM | 0.19% | 23.2% | 0.1% | > 25 µM | > 22.6 µM | > 25 µM | 0.0421 µM | CC(C)n1cnc(/C=C/c2csc(NC(=O)c3cccn3Cc3ccnc(F)c3)n2)c1 [Compound B45, (E)-1-((2-fluoropyridin-4-yl)methyl)-N-(4-(2-(1-isopropyl-1H-imidazol-4-yl)vinyl)thiazol-2-yl)-1H-pyrrole-2-carboxamide] | >593 | >540 |
